According to patent publication US11939299B1, “4-((2-(2-(2-(4-methoxyphenyl)-4,5-diphenyl-1H-imidazol-1-yl)acetyl)hydrazono)methyl)benzoic acid as an anti-cancer compound” (KING FAISAL UNIVERSITY, priority 2023, dated 2024):

Assays:
Assay type in all cases: cell-based
A498 = assay: Percentage growth inhibition of in vitro subpanel tumor cell lines, renal cancer; details: Homo sapiens, 0.01 mM, read-out: Percentage growth inhibition (GI %)
Procedure: (§1) The anticancer activity of 4-((2-(2-(2-(4-Methoxyphenyl)-4,5-diphenyl-1H-imidazol-1-yl)acetyl)hydrazono)methyl)benzoic acid was assessed against leukemia, non-small cell lung cancer, colon cancer, central nervous system (CNS) cancer, melanoma, ovarian cancer, renal cancer, prostate cancer, and breast cancer.
(§2) Percentage growth inhibition (GI %) of in vitro subpanel tumor cell lines at 0.01 mM concentration for compound 4-((2-(2-(2-(4-Methoxyphenyl)-4,5-diphenyl-1H-imidazol-1-yl)acetyl)hydrazono)methyl)benzoic acid (Labeled as AE21 in the table) can be seen in Table 1 below.

CAKI-1 = assay: as above; details: Homo sapiens; CAKI-1 (Renal Cancer), 0.01 mM; read-out: Percentage growth inhibition (GI %)
Procedure: as §1, §2

UO-31 = assay: as above; details: Homo sapiens; UO-31 (Renal Cancer), 0.01 mM; read-out: Percentage growth inhibition (GI %)
Procedure: as §1, §2

HS 578T = assay: Percentage growth inhibition of in vitro subpanel tumor cell lines, breast cancer; details: Homo sapiens; HS 578T (Breast Cancer), 0.01 mM; read-out: Percentage growth inhibition (GI %)
Procedure: as §1, §2

MCF7 = assay: as above; details: Homo sapiens, 0.01 mM, read-out: Percentage growth inhibition (GI %)
Procedure: as §1, §2

SK-MEL-5 = assay: Percentage growth inhibition of in vitro subpanel tumor cell lines, melanoma; details: Homo sapiens; SK-MEL-5 (Melanoma), 0.01 mM; read-out: Percentage growth inhibition (GI %)
Procedure: as §1, §2

MDA-MB-435 = assay: as above; details: Homo sapiens; MDA-MB-435 (Melanoma), 0.01 mM; read-out: Percentage growth inhibition (GI %)
Procedure: as §1, §2

LOX IMVI = assay: as above; details: Homo sapiens, 0.01 mM, read-out: Percentage growth inhibition (GI %)
Procedure: as §1, §2

CCRF-CEM = assay: Percentage growth inhibition of in vitro subpanel tumor cell lines, leukemia; details: Homo sapiens, 0.01 mM, read-out: Percentage growth inhibition (GI %)
Procedure: as §1, §2

MOLT-4 = assay: as above; details: Homo sapiens; MOLT-4 (Leukemia), 0.01 mM; read-out: Percentage growth inhibition (GI %)
Procedure: as §1, §2

RPMI-8226 = assay: as above; details: Homo sapiens; RPMI-8226 (Leukemia), 0.01 mM; read-out: Percentage growth inhibition (GI %)
Procedure: as §1, §2

SNB-75 = assay: Percentage growth inhibition of in vitro subpanel tumor cell lines, CNS cancer; details: Homo sapiens; SNB-75 (CNS Cancer), 0.01 mM; read-out: Percentage growth inhibition (GI %)
Procedure: as §1, §2

SF-295 = assay: as above; details: Homo sapiens; SF-295 (CNS Cancer), 0.01 mM; read-out: Percentage growth inhibition (GI %)
Procedure: as §1, §2

HCT-15 = assay: Percentage growth inhibition of in vitro subpanel tumor cell lines, colon cancer; details: Homo sapiens; HCT-15 (Colon Cancer), 0.01 mM; read-out: Percentage growth inhibition (GI %)
Procedure: as §1, §2

OVCAR-4 = assay: Percentage growth inhibition of in vitro subpanel tumor cell lines, ovarian cancer; details: Homo sapiens; OVCAR-4 (Ovarian Cancer), 0.01 mM; read-out: Percentage growth inhibition (GI %)
Procedure: as §1, §2

NCI-H226 = assay: Percentage growth inhibition of in vitro subpanel tumor cell lines, non-small cell lung cancer; details: Homo sapiens, 0.01 mM, read-out: Percentage growth inhibition (GI %)
Procedure: as §1, §2

NCI-H322M = assay: as above; details: Homo sapiens, 0.01 mM, read-out: Percentage growth inhibition (GI %)
Procedure: as §1, §2

NCI-H522 = assay: as above; details: Homo sapiens, 0.01 mM, read-out: Percentage growth inhibition (GI %)
Procedure: as §1, §2

NCI-H23 = assay: as above; details: Homo sapiens, 0.01 mM, read-out: Percentage growth inhibition (GI %)
Procedure: as §1, §2

EKVX = assay: as above; details: Homo sapiens, 0.01 mM, read-out: Percentage growth inhibition (GI %)
Procedure: as §1, §2

PC-3 = assay: Percentage growth inhibition of in vitro subpanel tumor cell lines, prostate cancer; details: Homo sapiens; PC-3 (Prostate Cancer), 0.01 mM; read-out: Percentage growth inhibition (GI %)
Procedure: as §1, §2

tumor cell lines = assay: Anticancer activity against tumor cell lines (panel, overall statement); details: some tumor cell lines, 0.01 mM concentration
Procedure: as §1, §2

Question: Which results are given for `COc1ccc(-c2nc(-c3ccccc3)c(-c3ccccc3)n2CC(=O)N/N=C/c2ccc(C(=O)O)cc2)cc1` [AE21, 4-((2-(2-(2-(4-Methoxyphenyl)-4,5-diphenyl-1H-imidazol-1-yl)acetyl)hydrazono)methyl)benzoic acid]?
Answer: inhibition at 10 µM (A498): 13.5%; inhibition at 10 µM (CAKI-1): 6.23%; inhibition at 10 µM (UO-31): 0.61%; inhibition at 10 µM (HS 578T): 18.6%; inhibition at 10 µM (MCF7): 13.4%; inhibition at 10 µM (SK-MEL-5): 1.29%; inhibition at 10 µM (MDA-MB-435): 9.17%; inhibition at 10 µM (LOX IMVI): 5.6%; inhibition at 10 µM (CCRF-CEM): 2.61%; inhibition at 10 µM (MOLT-4): 4.6%; inhibition at 10 µM (RPMI-8226): 0.34%; inhibition at 10 µM (SNB-75): 18.9%; inhibition at 10 µM (SF-295): 5.54%; inhibition at 10 µM (HCT-15): 3.82%; inhibition at 10 µM (OVCAR-4): 13.7%; inhibition at 10 µM (NCI-H226): 6.62%; inhibition at 10 µM (NCI-H322M): 0.85%; inhibition at 10 µM (NCI-H522): 12.4%; inhibition at 10 µM (NCI-H23): 4.19%; inhibition at 10 µM (EKVX): 10.3%; inhibition at 10 µM (PC-3): 2.68%; anticancer activity (tumor cell lines): moderate efficiency
